In brackets after ≈: the same amount, converted by molar mass. Like-named read-outs stand apart in the source and are kept apart here. Marks after values point to notes of the source that are not given here.
Key:
[1] = tested on: PfNF54 LGc (stage IV/V gametocytes); test: PrestoBlue late-stage gametocyte viability assay; type: cell-based, Plasmodium falciparum; settings: for IC50: Plasmodium falciparum, stage IV/V gametocytes, 48 h drug pressure, read-out: PfNF54 LGc IC50
Method: Gametocytogenesis was induced on highly synchronized (>95%) asexual ring-stage parasites from PfNF54 at 0.5% parasitemia and 6% hematocrit and thereafter maintained in glucose-deprived media as previously described.[29],[15] After 3 days, the hematocrit was decreased to 4%. Parasites were maintained in complete culture media supplemented with 50 mM N-acetyl-glucosamine 5–10 days post induction to inhibit proliferation of residual asexual blood stages. Gametocyte progression and morphology was also monitored microscopically using Giemsa-stained thin smears.
activity against the sexual stages of P. falciparum was evaluated using the PrestoBlue fluorescence assay as previously described.[4] Activity was measured on PfNF54 stage IV/V gametocytes (2% gametocytemia, 5% hematocrit) previously seeded with compounds (in non-lethal DMSO) for 48 h drug pressure, after which PrestoBlue reagent was added and incubated for 2 h. Fluorescence was detected in the supernatant at 612 nm. Dihydroartemisinin (DHA) was used as a positive drug control.

[2] = tested on: male gametes (PfNF54); test: Male gamete exflagellation inhibition assay (EIA); type: cell-based; settings: Plasmodium falciparum; 2 μM, 48 h; read-out: male gamete inhibition %
Method: The EIA was performed using video microscopy by capturing the movement of exflagellation centers over time as previously described.[4],[30] Mature PfNF54 stage V gametocytes (>95%;) were treated with 2 μM of drug for 48 h before the activation of exflagellation, without removing drug pressure. Movement was semi-automatically quantified from 15 videos of 8–10 s each between 15 and 22.5 min after incubation. Each video was analyzed using ICY-bio image analysis software.

[3] = tested on: female gametes; test: Female gamete inhibition assay; type: cell-based, Plasmodium falciparum; design: concentration or dose not given beside the values
Method: Similarly, female gametes were activated as described previously.[31] Monoclonal anti-Pfs antibody conjugated to FITC was used to detect female gametes. Image acquisition was performed using a Zeiss Axio Lab.A1 epifluorescence microscope with a 100/1.4 numerical aperture (NA) oil immersion. Thirty images were captured per sample and analyzed manually.

[4] = tested on: oocyst formation; test: Standard membrane feeding assay (SMFA), oocyst formation in Anopheles coluzzii; type: in vivo; settings: Plasmodium falciparum, 48 h drug treatment at 2 μM, single biological repeat
Method: Transmission-blocking activity was confirmed in the standard membrane feeding assay (SMFA), by determining transmission-reducing activity (TRA; reduction in oocyst counts) and transmission-blocking activity (TBA, reduction in oocyst prevalence), 8–10 days after feeding female mosquitoes on gametocyte-infected blood, treated with selected compounds (at 2 μM).
SMFA was performed using glass feeders as is outlined.[4],[16] Once again, mature stage V gametocytes (>95%) were treated with 2 μM of each compound for 48 h prior to feeding. Anopheles coluzzii females were allowed to feed on gametocyte cultures (1.5–2.5% gametocytemia, 50% hematocrit in A+ male serum with fresh erythrocytes) in the dark for 40 min. All unfed or partially fed mosquitoes were removed, and remaining females housed for 8–10 days. Mosquitoes were dissected to remove midguts, and oocysts counted under bright field illumination at ×20–×40 magnification. The percentage of block in transmission (transmission-blocking activity; TBA) and the percentage of reduction in the number of oocysts (transmission-reducing activity; TRA) were calculated after normalizing to the control untreated sample.

[5] = tested on: African field isolate SB05; test: Ex vivo activity on clinical isolate SB05; type: cell-based, Plasmodium falciparum; settings: for IC50: Plasmodium falciparum, read-out: IC50 SB05
Text: (§1) Since SB03/05 are both multiclonal,[27] this warrants further investigation into the activity of this series toward clinical gametocytes.
(§2) (A) Dose–response analysis of SQ109 on clinical isolates SB03 and SB05 in comparison to lab-adapted NF54 P. falciparum parasites. Data are from at least 2 independent biological repeats, mean ± SE indicated, * P < 0.05 is indicated. (B) IC50 for SQ109 analogs 13 and 19 against a contemporary African field isolate SB05. […] TEXT PRINTED IN THE PICTURE: (A) SQ109/1: IC50 (μM), NF54: 1.58 ± 0.20; IC50 (μM), SB03: 0.63 ± 0.01; IC50 (μM), SB05: 0.90 DOUBTS OF THE COPYIST ABOUT THIS PICTURE: Panel A: the three IC50 values are matched to NF54, SB03 and SB05 only by line style (black dashed, grey solid, grey dashed), not by a printed label beside the numbers.

[6] = tested on: HepG2 cells; test: HepG2 cytotoxicity, LDH release assay; settings: Homo sapiens, HepG2, 24 h, read-out: HepG2 EC50
Method: (§3) Furthermore, compounds were evaluated against late (stage IV/V) gametocytes from PfNF54 (PfNF54 LGc), with viability detected with PrestoBlue,[15] and orthogonally evaluated for toxicity against a human hepatocellular carcinoma line, HepG2.[16]
(§4) Human hepatocellular liver carcinoma cells (HepG2) were cultivated in vitro in Dulbecco’s Modified Eagle’s Medium (DMEM) supplemented with 10% (v/v) heat inactivated fetal bovine serum and 1% (v/v) penicillin/streptomycin.[14] Cells were detached with trypsin treatment at 80% confluency and were seeded in 96-well plates to adhere for 24 h under 5% CO2, humid (95%) conditions. Cells were subsequently exposed to drug pressure for 24 h and cytotoxicity was then determined using the lactate dehydrogenase (LDH) release assay through the colorimetric detection at 450 nm, as previously outlined.[4],[16]

[7] = tested on: PfNF54 ABS; test: SYBR Green I proliferation assay, asexual blood stages, drug-sensitive NF54; settings: for IC50: Plasmodium falciparum, NF54, 96 h, read-out: Pf ABS IC50 NF54
Method: (§5) P. falciparum asexual parasites were cultured from drug-sensitive NF54 (PfNF54) and multidrug resistant strains PfK1. Parasites were maintained in human erythrocytes (O+, suspended at 5% hematocrit) in RPMI-1640 culture medium (23.81 mM sodium bicarbonate, 0.024 mg/mL gentamycin, 25 mM HEPES pH 7.5, 0.2% D-glucose, 0.2 mM hypoxanthine and Albumax II) under hypoxic conditions (5% CO2, 5% O2 and 90% N2) with moderate shaking (60 rpm) at 37 °C. Cultures were synchronized to >95% in the ring stage with 5% (w/v) D-sorbitol treatment.[28]
(§6) Activity against the asexual stage of P. falciparum was evaluated using the SYBR Green I-based fluorescence assay as previously described.[4],[16] Cellular proliferation was measured on synchronized in vitro PfNF54 ring-stage parasites (1% parasitemia, 2% hematocrit), following drug pressure for 96 h. Chloroquine was used as the positive drug control for complete inhibition of parasite proliferation.

[8] = tested on: PfK1; test: SYBR Green I proliferation assay, asexual blood stages, multidrug-resistant K1; settings: for IC50: Plasmodium falciparum, K1, read-out: Pf ABS IC50 K1; for fold higher IC50 against PfK1: PfK1 vs NF54
Method: as §5, §6

[9] = tested on: PfDd2 parasites; test: Asexual blood stage activity, chloroquine-resistant Dd2; type: cell-based; settings: Plasmodium falciparum, DD2, read-out: Pf ABS IC50 (Dd2)
Text: This strain is highly resistant to chloroquine and other antimalarials and is associated with increased export of e.g., chloroquine from the digestive vacuole.[23] This phenotype was also replicated in PfDd2 parasites, also resistant to chloroquine (among other antimalarials), with 4 and 5 losing activity but 1 similarly active (Table 1). These aromatic compounds may therefore be subject to resistance mechanisms similar to those found with chloroquine.

[10] = physchem; type: physicochemical; settings: 37 °C, pH 6.5, aqueous buffer, thermodynamic from solid
Method: The stock solutions (10^–2 M) of the assayed compounds were diluted to decreased molarity, from 300 to 0.1 μM, in 384 well transparent plate (Greiner 781801) with 1% DMSO:99% PBS buffer. Then, they were incubated at 37 °C and the light scattering was measured after 2 h in a NEPHELOstar Plus (BMG LABTECH). The results were adjusted to a segmented regression to obtain the maximum concentration in which compounds are soluble.
The solubility of each product was evaluated using an HPLC Agilent 1100 with a DAD detector. The samples were injected in an Agilent Poroshell 120 EC-C18, 2.7 μm, 50 mm × 4.6 mm column at 40 °C and 0.6 mL/min flow. The mobile phase was a mixture of A = water with 0.05% formic acid and B = acetonitrile with 0.05% formic acid. The procedure followed was from 95% A–5% B to 100% B in 3 min, 100% B in 3 min, from 100% B to 95% A–5% B in 1 min, 95% A–5% B in 3 min; the injection volume was set at 75 μL. […] The samples remained at these conditions between 12–24 h. Then, the samples were filtered through a 0.45 μm PVDF filter and either directly analyzed or diluted before analyzing. The obtained area under the curve was compared with the one from the standard solution.

[11] = in vitro; type: in vitro ADME; settings: microsomes
Method: The microsomal stability assay used a single-point assay design (Di et al., 2004). Briefly, the compounds were incubated at 1 μM in human, rat, and mouse liver microsomes (0.4 mg/mL) for 30 min at 37 °C. Reactions were quenched by adding ice-cold acetonitrile containing internal standard (carbamazepine, 0.0236 μg/mL). The samples were then centrifuged, and the samples were analyzed by liquid chromatography with tandem mass spectrometry (LC-MS/MS) (Agilent Rapid Resolution HPLC, AB SCIEX 4500 MS) for the disappearance of the parent compound. Half-life, clearance and hepatic […] ratios were determined using standard equations.

[12] = tested on: PfNF54 ABS; design: method as in Stampolaki et al.[5]; settings: drug-sensitive NF54; ref Stampolaki et al.[5]; read-out: Pf ABS IC50 NF54; cited from earlier work
[13] = tested on: HepG2 cells; design: method as in Stampolaki et al.[5]; settings: compound at 20 μM; ref Stampolaki et al.[5]; cited from earlier work
[14] = tested on: immature-stage gametocytes (IGc, stage II/III); test: Immature-stage gametocyte activity; type: cell-based; settings: Plasmodium falciparum, 48 h drug pressure
Method: Figure 1 SQ109 is a gametocyte-targeting compound. (A) IC50 for parent compound SQ109/1 on asexual parasites (ABS), immature-stage gametocytes (IGc, stage II/III), or late-stage gametocytes (LGc, stage IV/V), under 48 h drug pressure. IC50 ABS: 1.58 ± 0.2 μM; IC50 IGc: 0.38 ± 0.10 μM; IC50 LGc: 0.14 ± 0.03 μM; ** P < 0.01 indicates IGc and LGc vs ABS. (B) Chemical structure and summary of the designed structure–activity relationships (SAR-1, SAR-2 and SAR-3) around SQ109/1. Data are from >2 independent biological repeats, mean ± SE indicated, unpaired Student’s t-test applied.

[15] = tested on: clinical isolate SB03; test: Ex vivo activity on clinical isolate SB03; type: cell-based; settings: Plasmodium falciparum, read-out: IC50 SB03
Text: as §1, §2

[16] = tested on: male gametes (PfNF54); design: method as in Reader et al.[4]; settings: ref Reader et al.[4]; cited from earlier work
[17] = tested on: female gametes; design: method as in Reader et al.[4]; settings: ref Reader et al.[4]; cited from earlier work
[18] = tested on: oocyst formation; settings: cited from earlier work
[19] = tested on: HepG2 cells
Method: as §3, §4

[20] = read-out: oocyst formation (% inhibition) TBA
[21] = read-out: oocyst formation (% inhibition) TRA
[22] = 48 h drug treatment at 2 μM, ref Reader et al.[4]

Row | SMILES | IC50 [1] | inhibition at 2 µM [2] | female gamete inhibition % [3] | inhibition at 2 µM [4, 20] | inhibition at 2 µM [4, 21] | IC50 [5] | EC50 [6] | IC50 [7] | IC50 [8] | IC50 [9] | solubility [10] | microsomal CLint at 1 µM ([11]; human) | microsomal CLint at 1 µM ([11]; mouse) | microsomal CLint at 1 µM ([11]; rat) | IC50 [12] | HepG2 % viability [13] | fold higher IC50 against PfK1 [8] | other results
1 | CC(C)=CCC/C(C)=C/CNCCCNC1C2CC3CC(C2)CC1C3 (stereo not drawn) [Compound 13] | 120 ± 30 nM | 90.9 ± 9.09% | 87.02 ± 3.68% | 64% | 70% | 490 ± 90 nM | 11800 ± 830 nM | 980 ± 80 nM | 1050 ± 90 nM | – | – | – | – | – | – | – | – | fold improvement in gametocyte activity compared to 1 ([1]; PfNF54 LGc): 1.2 fold; fold improvement in ABS activity compared to 1 ([7]; PfNF54 ABS): 1.6 fold
2 | CC(C)=CCC/C(C)=C/CNCCNC1(c2ccccc2)C2CC3CC(C2)CC1C3 (stereo not drawn) [Compound 5] | 210 ± 20 nM | 48 ± 24.8% | 61.03 ± 14.35% | 63% | 38% | – | – | – | 5990 ± 630 nM | 5660 nM | 30 µM (≈ 12.2 µg/mL) | 400 µL/min/mg | 343 µL/min/mg | 514 µL/min/mg | 420 ± 90 nM | 100%^c | 14 × | –
3 | CC(C)=CCC/C(C)=C/CNCCNC1(Cc2ccccc2)C2CC3CC(C2)CC1C3 (stereo not drawn) [Compound 4] | 160 ± 20 nM | 43.9 ± 10.6% | 74.48 ± 2.26% | 26% | – | – | – | – | > 5000 nM | 8110 nM | 13.9 µM (≈ 5.85 µg/mL) | – | – | – | 320 ± 30 nM | 100%^c | 16 × | –
4 | CC(C)=CCC/C(C)=C/CNCCNC1C2CC3CC(C2)CC1C3 (stereo not drawn) [Compound 1, N-geranyl-N′-(2-adamantyl)ethane-1,2-diamine, reference compound] | 140 ± 30 nM | – | – | – | – | 900 nM | 9210 ± 1990 nM | – | 3480 ± 240 nM | 1440 nM | – | 442 µL/min/mg | 410 µL/min/mg | 385 µL/min/mg | 1580 ± 200 nM | – | – | selectivity toward LGc compared to ABS ([1]; LGc IC50 vs ABS IC50): > 10 fold; IC50 [14]: 380 nM; IC50 [15]: 630 ± 10 nM; shift in IC50, clinical isolates vs NF54 ([5]; contemporary African clinical isolates ex vivo): no significant shift; male gamete inhibition % [16]: 72.98 ± 5.97 ^c %; female gamete inhibition % [17]: 51.74 ± 5.40 ^c %; oocyst formation (% inhibition) TBA [18, 22]: 36.0 ± 10.6 ^c %; oocyst formation (% inhibition) TRA [18, 22]: 76.0 ± 4.75 ^c %; transmission-reducing activity [18]: 80%
5 | CC(C)CCCC(C)CCNCCNC1C2CC3CC(C2)CC1C3 (stereo not drawn) [Compound 19] | 300 ± 30 nM | 95.5 ± 4.55% | 86.30 ± 2.58% | 36% | 47% | 950 ± 310 nM | 3500 ± 90 nM | 200 nM | 110 ± 10 nM | – | – | – | – | – | – | – | – | cytotoxicity to HepG2 cells (in words) [19]: moderately cytotoxic
